Data taken from ChEMBL document CHEMBL1201862, “PubChem BioAssay data set” (2004).
Activity calls are given as the source filed them.

What was measured:
cells = format: functional, cell-based
HEK293 = test: cytotoxicity in HEK293T NF-kB-Luc cells, SAR follow-up, cytotoxicity control for NF-kB activator project, cell-based, resazurin fluorescence (AID 493251); format: functional; conditions: Homo sapiens
BJ = test: cytotoxicity toward BJ-TERT fibroblasts, dose response, cell-based, RAS-independent, luminescence (AID 1933); format: functional; conditions: Homo sapiens
Exodeoxyribonuclease V = biological target: T1, Exodeoxyribonuclease V (Escherichia coli (strain K12), UniProt P04993+P07648+P08394); test: E. coli RecBCD inhibitors, dose response, counter-screen for AddAB inhibitor project, absorbance, V66 E. coli, mutant T4 phage (AID 492957); format: functional, cell-based, Escherichia coli str. K-12 substr. MG1655
T1 sequence (P04993 whole entry): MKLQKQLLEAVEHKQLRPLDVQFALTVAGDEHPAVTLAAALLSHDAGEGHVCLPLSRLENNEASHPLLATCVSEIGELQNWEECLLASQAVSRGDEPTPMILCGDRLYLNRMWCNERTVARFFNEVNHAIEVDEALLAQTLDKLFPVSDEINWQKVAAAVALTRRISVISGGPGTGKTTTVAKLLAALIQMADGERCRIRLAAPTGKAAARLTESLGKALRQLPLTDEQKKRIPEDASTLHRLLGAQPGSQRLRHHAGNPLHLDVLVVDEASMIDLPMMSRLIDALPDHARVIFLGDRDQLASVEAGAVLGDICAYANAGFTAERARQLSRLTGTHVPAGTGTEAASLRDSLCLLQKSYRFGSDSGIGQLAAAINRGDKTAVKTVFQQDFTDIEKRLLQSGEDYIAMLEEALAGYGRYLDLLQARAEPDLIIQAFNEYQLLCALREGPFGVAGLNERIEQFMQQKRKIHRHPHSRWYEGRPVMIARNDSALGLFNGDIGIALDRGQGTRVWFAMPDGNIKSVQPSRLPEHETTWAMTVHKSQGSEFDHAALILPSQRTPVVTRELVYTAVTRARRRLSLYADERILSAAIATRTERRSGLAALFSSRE
T1 sequence (P07648 whole entry): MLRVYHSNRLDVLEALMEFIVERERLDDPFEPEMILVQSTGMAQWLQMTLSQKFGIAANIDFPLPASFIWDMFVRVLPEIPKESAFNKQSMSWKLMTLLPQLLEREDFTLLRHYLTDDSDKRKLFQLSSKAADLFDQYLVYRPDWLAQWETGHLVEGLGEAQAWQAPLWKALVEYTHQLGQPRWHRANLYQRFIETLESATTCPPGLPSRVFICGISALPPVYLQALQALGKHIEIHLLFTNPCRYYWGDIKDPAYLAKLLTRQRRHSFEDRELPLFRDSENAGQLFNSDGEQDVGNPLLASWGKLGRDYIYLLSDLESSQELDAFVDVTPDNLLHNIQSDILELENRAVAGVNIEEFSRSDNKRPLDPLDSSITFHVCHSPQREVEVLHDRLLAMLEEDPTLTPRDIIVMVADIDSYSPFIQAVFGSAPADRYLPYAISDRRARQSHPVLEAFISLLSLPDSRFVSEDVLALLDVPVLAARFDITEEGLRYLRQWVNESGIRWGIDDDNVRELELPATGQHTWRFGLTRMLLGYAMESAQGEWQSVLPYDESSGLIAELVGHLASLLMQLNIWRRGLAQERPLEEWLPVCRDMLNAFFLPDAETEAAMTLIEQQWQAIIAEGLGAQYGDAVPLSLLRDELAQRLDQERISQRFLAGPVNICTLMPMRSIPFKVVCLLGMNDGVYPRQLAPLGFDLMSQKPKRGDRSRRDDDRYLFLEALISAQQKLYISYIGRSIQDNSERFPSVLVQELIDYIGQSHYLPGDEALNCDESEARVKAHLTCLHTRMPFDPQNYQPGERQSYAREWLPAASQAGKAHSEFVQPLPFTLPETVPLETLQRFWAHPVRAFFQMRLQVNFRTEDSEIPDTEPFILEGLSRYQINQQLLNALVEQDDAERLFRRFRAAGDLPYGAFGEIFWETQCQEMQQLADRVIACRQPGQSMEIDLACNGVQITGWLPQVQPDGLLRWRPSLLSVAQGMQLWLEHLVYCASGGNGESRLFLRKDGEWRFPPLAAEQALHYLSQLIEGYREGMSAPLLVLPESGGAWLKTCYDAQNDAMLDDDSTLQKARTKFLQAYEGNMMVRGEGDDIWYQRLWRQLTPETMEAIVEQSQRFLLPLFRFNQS
T1 sequence (P08394 whole entry): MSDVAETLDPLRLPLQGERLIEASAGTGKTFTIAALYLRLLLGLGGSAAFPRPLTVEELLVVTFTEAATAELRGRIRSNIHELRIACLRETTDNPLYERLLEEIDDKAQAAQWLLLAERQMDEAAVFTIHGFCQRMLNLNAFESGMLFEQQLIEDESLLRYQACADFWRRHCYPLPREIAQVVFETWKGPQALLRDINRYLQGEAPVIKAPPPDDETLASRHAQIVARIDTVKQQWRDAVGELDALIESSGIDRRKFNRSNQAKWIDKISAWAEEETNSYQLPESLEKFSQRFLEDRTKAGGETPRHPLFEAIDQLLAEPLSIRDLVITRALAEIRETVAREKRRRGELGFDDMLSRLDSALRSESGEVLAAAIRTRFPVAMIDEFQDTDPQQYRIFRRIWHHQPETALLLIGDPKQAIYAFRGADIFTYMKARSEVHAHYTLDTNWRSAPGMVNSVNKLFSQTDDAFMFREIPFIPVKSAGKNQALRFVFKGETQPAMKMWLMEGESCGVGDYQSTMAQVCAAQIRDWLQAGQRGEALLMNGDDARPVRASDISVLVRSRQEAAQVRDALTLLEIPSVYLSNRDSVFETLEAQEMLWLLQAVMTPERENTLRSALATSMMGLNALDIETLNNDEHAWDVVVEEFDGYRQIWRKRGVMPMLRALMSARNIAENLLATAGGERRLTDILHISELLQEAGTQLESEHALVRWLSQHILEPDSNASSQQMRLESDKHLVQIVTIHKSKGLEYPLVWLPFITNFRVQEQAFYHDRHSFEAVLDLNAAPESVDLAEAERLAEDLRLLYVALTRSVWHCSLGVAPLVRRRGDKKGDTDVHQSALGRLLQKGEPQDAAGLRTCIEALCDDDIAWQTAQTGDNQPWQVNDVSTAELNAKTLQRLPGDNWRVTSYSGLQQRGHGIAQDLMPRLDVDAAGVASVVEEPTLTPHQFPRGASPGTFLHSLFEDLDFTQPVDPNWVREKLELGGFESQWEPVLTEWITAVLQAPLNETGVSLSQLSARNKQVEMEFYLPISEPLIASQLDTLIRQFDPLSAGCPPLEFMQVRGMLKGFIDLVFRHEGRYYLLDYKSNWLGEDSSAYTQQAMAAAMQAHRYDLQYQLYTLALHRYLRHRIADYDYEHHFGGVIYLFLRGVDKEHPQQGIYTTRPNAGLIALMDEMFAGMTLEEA

Caspase-8 = Caspase-8 (Homo sapiens, UniProt Q14790); test: caspase-8 inhibition counter-screen, dose response, selectivity assay for caspase-6 inhibitor project, biochemical, Z-IETD-R110 fluorescence, cherry-picked samples (AID 743294)
Sequence of Caspase-8 (Q14790 217-374 limits assumed): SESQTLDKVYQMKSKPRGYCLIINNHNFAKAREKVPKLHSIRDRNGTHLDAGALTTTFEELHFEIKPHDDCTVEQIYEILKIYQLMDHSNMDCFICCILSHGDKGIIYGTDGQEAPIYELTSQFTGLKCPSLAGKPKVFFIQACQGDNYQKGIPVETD
Sequence of Caspase-8 (Q14790 385-479 limits assumed): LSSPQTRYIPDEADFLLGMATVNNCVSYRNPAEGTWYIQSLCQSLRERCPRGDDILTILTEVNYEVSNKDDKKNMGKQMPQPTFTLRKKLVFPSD

| AC50 (Caspase-8) | SMILES | EC50 (cells) | IC50 (HEK293) | EC50 (BJ) | IC50 (Exodeoxyribonuclease V) |
| --- | --- | --- | --- | --- | --- |
| – | CCCCC(=O)NC(c1ccc(N(C)C)cc1)c1ccc2cccnc2c1O (stereo not given) | 3.94 µM (active) | 41.2 µM (inactive) | 1.05 µM (active) | > 119 µM (inactive) |
| 23.8 µM (active) | CN(CC(=O)Nc1ccccc1Cl)C(=O)COC(=O)c1ccc([N+](=O)[O-])s1 | – | – | – | – |
